This note sets out measurements from patent publication US12351580B2, “NLRP3 modulators” (Innate Tumor Immunity, Inc., priority 2017, dated 2025).

The target in the assay is T1, hNLRP3 (Homo sapiens, UniProt Q96P20).
T1 construct: THP-1 cells were purchased from the American Type Culture Collection; host or cells: THP-1 cells, PMA-differentiated
In words: Measurement of IL-1β production in PMA-differentiated THP-1 cells (hNLRP3 agonist; ELISA, alternative and hTRF procedures). The format is cell-based. The essentials:
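Supernatant IL-1β was quantified by ELISA in two procedures and by hTRF (kit antibodies at 1:40) in a third. THP-1 cells were first differentiated with PMA ([…] for 24 h; 20 μg/ml overnight; 50 ng/ml overnight), then incubated in 2% FBS RPMI with compounds for 4 h, 2 h and 2 h, respectively, at 1% DMSO or a 10 μM top concentration.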

pEC50: −log10 of the molar value.

T1 sequence (Q96P20 whole entry): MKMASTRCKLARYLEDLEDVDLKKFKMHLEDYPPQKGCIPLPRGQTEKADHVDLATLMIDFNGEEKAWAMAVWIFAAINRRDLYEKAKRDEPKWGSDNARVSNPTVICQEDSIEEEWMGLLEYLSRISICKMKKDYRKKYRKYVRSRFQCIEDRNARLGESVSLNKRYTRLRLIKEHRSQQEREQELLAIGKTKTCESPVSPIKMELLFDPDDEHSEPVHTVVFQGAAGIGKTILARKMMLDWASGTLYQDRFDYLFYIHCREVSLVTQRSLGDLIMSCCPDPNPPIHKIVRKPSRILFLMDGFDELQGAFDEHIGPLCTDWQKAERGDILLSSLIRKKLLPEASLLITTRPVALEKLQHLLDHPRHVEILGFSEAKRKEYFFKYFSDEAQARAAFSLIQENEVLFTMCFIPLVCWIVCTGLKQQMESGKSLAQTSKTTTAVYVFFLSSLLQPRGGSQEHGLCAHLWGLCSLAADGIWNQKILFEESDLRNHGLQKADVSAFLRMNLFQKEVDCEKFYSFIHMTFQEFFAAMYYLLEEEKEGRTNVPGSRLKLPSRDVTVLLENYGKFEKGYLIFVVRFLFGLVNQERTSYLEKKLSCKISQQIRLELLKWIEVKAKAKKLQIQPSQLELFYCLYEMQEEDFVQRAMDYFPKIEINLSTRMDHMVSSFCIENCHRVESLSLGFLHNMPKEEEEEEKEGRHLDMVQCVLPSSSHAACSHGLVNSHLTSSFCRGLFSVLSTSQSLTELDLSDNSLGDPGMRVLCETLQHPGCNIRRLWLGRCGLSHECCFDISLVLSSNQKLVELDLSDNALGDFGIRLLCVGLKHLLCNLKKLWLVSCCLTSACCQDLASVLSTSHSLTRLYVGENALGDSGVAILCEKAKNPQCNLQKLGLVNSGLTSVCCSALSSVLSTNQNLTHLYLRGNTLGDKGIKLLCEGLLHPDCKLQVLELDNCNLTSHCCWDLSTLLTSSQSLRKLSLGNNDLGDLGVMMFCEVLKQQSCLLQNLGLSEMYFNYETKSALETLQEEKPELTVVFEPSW

`CCN(Cc1nc2c(N)nc3cc(-c4cc[nH]n4)ccc3c2n1C)C(=O)OC(C)(C)C` [Compound 420] showed a pEC50 of 6.72. With `CCN(Cc1nc2c(N)nc3cc(-c4ccc(C)cc4)ccc3c2[nH]1)C(C)=O` [Compound 422], the pEC50 was 6.55. With `Nc1nc2cc(-n3cccn3)ccc2c2[nH]c(CN3CCCCC3=O)nc12` [Compound 423] the figure was 6.21; with `CCN(Cc1nc2c(N)nc3cc(-c4cncc(F)c4)ccc3c2[nH]1)C(C)=O` [Compound 427], 5.30.

`CCN(Cc1nc2c(N)nc3cc(Br)ccc3c2n1CC(C)C)C(C)=O` [Compound 430] gave a pEC50 of 5.13.

As for `CCN(Cc1nc2c(N)nc3cc(Br)ccc3c2n1CCCOC)C(C)=O` [Compound 431], the negative logarithm of the EC50 (pEC50) was 5.06. With `N#Cc1ccc(-c2ccc3c(c2)nc(N)c2nc(CN4CCCC4=O)[nH]c23)cc1` [Compound 434] the figure was 4.81; with `CCOC(=O)N(CC)Cc1nc2c(N)nc3cc(-c4cc[nH]n4)ccc3c2[nH]1` [Compound 436, Ethyl N-{[4-amino-7-(1H-pyrazol-3-yl)-1H-imidazo[4,5-c]quinolin-2-yl]methyl}-N-ethylcarbamate], 5.89. With `CCN(Cc1nc2c(N)nc3cc(-c4cc[nH]n4)ccc3c2[nH]1)C(=O)Cc1cccc(C)c1` [Compound 437, N-{[4-amino-7-(1H-pyrazol-3-yl)-1H-imidazo[4,5-c]quinolin-2-yl]methyl}-N-ethyl-2-(3-methylphenyl)acetamide] the figure was 5.96; with `CCN(Cc1nc2c(N)nc3cc(-c4cc[nH]n4)ccc3c2[nH]1)C(=O)c1cccnc1` [Compound 438, N-{[4-amino-7-(1H-pyrazol-3-yl)-1H-imidazo[4,5-c]quinolin-2-yl]methyl}-N-ethylpyridine-3-carboxamide], 5.38; with `CCN(Cc1nc2c(N)nc3cc(-c4cc[nH]n4)ccc3c2[nH]1)C(=O)c1ccccn1` [Compound 439, N-{[4-amino-7-(1H-pyrazol-3-yl)-1H-imidazo[4,5-c]quinolin-2-yl]methyl}-N-ethylpyridine-2-carboxamide], 5.24. With `CCN(Cc1nc2c(N)nc3cc(-c4cc[nH]n4)ccc3c2[nH]1)C(=O)CC(C)(C)O` [Compound 440, N-{[4-amino-7-(1H-pyrazol-3-yl)-1H-imidazo[4,5-c]quinolin-2-yl]methyl}-N-ethyl-3-hydroxy-3-methylbutanamide] the figure was 4.74; with `CCN(Cc1nc2c(N)nc3cc(-c4cc[nH]n4)ccc3c2[nH]1)C(=O)c1ccc(OC)cc1` [Compound 441, N-{[4-amino-7-(1H-pyrazol-3-yl)-1H-imidazo[4,5-c]quinolin-2-yl]methyl}-N-ethyl-4-methoxybenzamide], 6.16; with `CCN(Cc1nc2c(N)nc3cc(-c4cc[nH]n4)ccc3c2[nH]1)C(=O)c1cnccn1` [Compound 442, N-{[4-amino-7-(1H-pyrazol-3-yl)-1H-imidazo[4,5-c]quinolin-2-yl]methyl}-N-ethylpyrazine-2-carboxamide], 5.59. As to `CCN(Cc1nc2c(N)nc3cc(-c4cc[nH]n4)ccc3c2[nH]1)C(=O)Cc1ccccc1` [Compound 443, N-{[4-amino-7-(1H-pyrazol-3-yl)-1H-imidazo[4,5-c]quinolin-2-yl]methyl}-N-ethyl-2-phenylacetamide], the pEC50 is 6.07. Consider `CCN(Cc1nc2c(N)nc3cc(-c4cc[nH]n4)ccc3c2[nH]1)C(=O)CCCc1ccccc1` [Compound 444, N-{[4-amino-7-(1H-pyrazol-3-yl)-1H-imidazo[4,5-c]quinolin-2-yl]methyl}-N-ethyl-4-phenylbutanamide], for which the pEC50 was 6.03. With `CCN(Cc1nc2c(N)nc3cc(-c4cc[nH]n4)ccc3c2[nH]1)C(=O)CCC(C)C` [Compound 445, N-{[4-amino-7-(1H-pyrazol-3-yl)-1H-imidazo[4,5-c]quinolin-2-yl]methyl}-N-ethyl-4-methylpentanamide] the figure was 6.13; with `CCN(Cc1nc2c(N)nc3cc(-c4cc[nH]n4)ccc3c2[nH]1)C(=O)c1cccn1C` [Compound 446, N-{[4-amino-7-(1H-pyrazol-3-yl)-1H-imidazo[4,5-c]quinolin-2-yl]methyl}-N-ethyl-1-methyl-1H-pyrrole-2-carboxamide], 6.17. Regarding `CCN(Cc1nc2c(N)nc3cc(-c4cc[nH]n4)ccc3c2[nH]1)C(=O)CCc1ccccc1` [Compound 447, N-{[4-amino-7-(1H-pyrazol-3-yl)-1H-imidazo[4,5-c]quinolin-2-yl]methyl}-N-ethyl-3-phenylpropanamide], the pEC50 was 5.82. In turn, `CCN(Cc1nc2c(N)nc3cc(-c4cc[nH]n4)ccc3c2[nH]1)C(=O)c1ccccc1Cl` [Compound 449, N-{[4-amino-7-(1H-pyrazol-3-yl)-1H-imidazo[4,5-c]quinolin-2-yl]methyl}-2-chloro-N-ethylbenzamide] had a pEC50 of 6.05. Consider `CCN(Cc1nc2c(N)nc3cc(-c4cc[nH]n4)ccc3c2[nH]1)C(=O)c1ccncc1` [Compound 450, N-{[4-amino-7-(1H-pyrazol-3-yl)-1H-imidazo[4,5-c]quinolin-2-yl]methyl}-N-ethylpyridine-4-carboxamide], for which the pEC50 was 5.35. Turning to `CCN(Cc1nc2c(N)nc3cc(-c4cc[nH]n4)ccc3c2[nH]1)C(=O)c1cn(C)c2ccccc12` [Compound 451, N-{[4-amino-7-(1H-pyrazol-3-yl)-1H-imidazo[4,5-c]quinolin-2-yl]methyl}-N-ethyl-1-methyl-1H-indole-3-carboxamide], the pEC50 is 5.89.

In turn, `CCN(Cc1nc2c(N)nc3cc(-c4cc[nH]n4)ccc3c2[nH]1)C(=O)c1ccc(Cl)cc1` [Compound 452, N-{[4-amino-7-(1H-pyrazol-3-yl)-1H-imidazo[4,5-c]quinolin-2-yl]methyl}-4-chloro-N-ethylbenzamide] had a pEC50 of 5.92. The pEC50 values of the last two molecules are within 0.2 log units of each other.
